Like-named read-outs stand apart in the source and are kept apart here.
What was measured:
[1] = system: SARS-CoV-2 strain BetaCoV/France/IDF0372/2020; assay: microbe, parasite or virus in culture; conditions: Severe acute respiratory syndrome coronavirus 2, U2OS
SARS-CoV-2 PL^pro = conditions: in vitro SARS-CoV-2 PL^pro; cited from earlier work
in vitro = conditions: human, CC50, U2-OS ACE2 GFP cells
SARS-CoV-2 [2] = conditions: A549 + ACE2 cells, pretreatment; cited from earlier work
SARS-CoV-2 [3] = conditions: SARS-CoV-2-infected mice; cited from earlier work
SARS-CoV-2 [4] = conditions: cited from earlier work

Row | SMILES | IC50 [1] [nM] | IC50 (SARS-CoV-2 PL^pro) [nM] | CC50 (in vitro) [nM] | IC50 (SARS-CoV-2 [2]) [nM] | viral load in the lungs (SARS-CoV-2 [3]) | IC50 (SARS-CoV-2 [4]) [nM]
1 | COc1ccc2nc3cc(Cl)ccc3c(Nc3cc(CN4CCCC4)c(O)c(CN4CCCC4)c3)c2n1 [7g, pyronaridine] | 420 | 1800 | 4700 | 230 | reduces viral load | –
2 | CCN(CC)CCCC(C)Nc1c2ccc(Cl)cc2nc2ccc(OC)cc12 (centres unmarked) [quinacrine] | 2570 | – | – | 190 | – | –
3 | CCC(CC)COC(=O)[C@H](C)N[P@](=O)(OC[C@H]1O[C@@](C#N)(c2ccc3c(N)ncnn23)[C@H](O)[C@@H]1O)Oc1ccccc1 [remdesivir] | – | – | – | – | – | 20 to 50

Source: paper PMC10620940 (ACS Omega, 2023)
